Data published in patent publication US20140137274A1, “INDUCED MALIGNANT STEM CELLS” (LSIP, LLC, priority 2011, published 2014).

Tested on: cancer-related miRNAs
Assay: miRNA expression microarray (SurePrint G3 Human miRNA Microarray Rel.16.0)
Details: logarithmic (log2) value of quotient vs control
Method: Total RNA was prepared from each of six induced malignant stem cells, one induced non-malignant stem cell, and one induced pluripotent stem cell as mentioned above, and the prepared total RNAs were used in Agilent SurePrint G3 Human miRNA Microarray Rel.16.0 to detect abnormal expression (increased or reduced/lost expression) of non-coding RNAs such as endogenous cancer-related microRNAs in the induced malignant stem cells.
Complete Labeling Reagent and Hyb Kit in accordance with the Agilent protocol. To be specific, each sample total RNA (100 ng) was dephosphorylated with Calf Intestine Alkaline Phosphatase (CIP), and the RNA molecule on its 3′ terminal side was labeled with a cyanine 3-cytidine bisphosphate (pCp-Cy3) molecule using T4 RNA Ligase.
The RNA samples labeled in (14-2-3) were hybridized with SurePrint G3 Human miRNA Microarray Rel.16.0 using Agilent miRNA Complete Labeling Reagent and Hyb Kit. To be specific, each of the labeled RNAs was added to a hybridization buffer and allowed to hybridize on SurePrint G3 Human miRNA Microarray Rel.16.0 for 20 hours. After washing, the DNA microarray image was scanned by Agilent Microarray Scanner, and fluorescence signals from the spots were digitized by Feature Extraction Software (v.10.7.3.1).
The miRNAs were annotated using miRBase Release 18, and hybridization was performed onto a microarray chip with the probes designed for the miRNAs shown in the following table (refer to Table 31 below).
In this analysis, the normalized value of the digital data for the hybridization of a subject cell (induced malignant stem cell) sample was divided by the normalized value from the digital data for the hybridization of a control cell sample and the quotient was used as a measure of variation in expression. Probes for which the quotients deviated from 1 (i.e., log21=0) were considered to indicate a variation in expression; those showing quotients greater than 2 (log22=1) or smaller than 0.5 (log20.5=−1) were selected. For each of the comparisons shown below, the genes shown in the tyrosine kinase list and those shown in the cancer drug targets list were analyzed to make respective lists of the genes showing quotients greater than 2 (log22=1) or smaller than 0.5 (log20.5=−1), as compared with the quotient for the control (taken as 1). The analysis was performed using GeneSpring 12.1.
The Normalized column represents a variation in expression in logarithmic values.

Substance	Normalized (variation in microRNA expression, subject cell / control cell) ([Ngc1_7]vs [Nib2_17])	Normalized (variation in microRNA expression, subject cell / control cell) ([cc4_c]vs [Nfb2_17])	Normalized (variation in microRNA expression, subject cell / control cell) ([gc2_1]vs [Nfb2_17])	Normalized (variation in microRNA expression, subject cell / control cell) ([gc2_10]vs +Nfb2_17])	Normalized (variation in microRNA expression, subject cell / control cell) ([gcl_6]vs [Nfb2_17])	Normalized (variation in microRNA expression, subject cell / control cell) ([gc2_5]vs [Nfb2_17])	Normalized (variation in microRNA expression, subject cell / control cell) ([gc1_6]vs [Ngc1_7])
hsa-miR-200c-3p (TCCATCATTACCCGG; chemistry not given here)	1.59	4.536	−1.393	−1.715	2.005	–	–
hsa-miR-205-5p (CAGACTCCGGTGGAAT; chemistry not given here)	−1.315	–	−1.577	−2.908	–	−2.341	–
hsa-miR-210 (TCAGCCGCTGTCACAC; chemistry not given here)	1.643	3.796	–	–	2.036	−1.628	–
hsa-miR-222-3p (ACCCAGTAGCCAG; chemistry not given here)	–	1.861	–	–	–	–	–
hsa-miR-372 (ACGCTCAAATGTCGCAGC; chemistry not given here)	−3.388	–	–	–	−1.385	–	2.003
hsa-miR-373-3p (ACACCCCAAAATCGAAGC; chemistry not given here)	−2.818	–	–	−3.202	−1.094	−2.93	1.725
hsa-miR-I7-5p (CTACCTGCACTGTAAGC; chemistry not given here)	–	–	–	−3.619	–	–	–
hsa_miR-301a-3p (GCTTTGACAATACTATTGCAC; chemistry not given here)	–	−1.212	–	–	–	–	–
